Reference: EP3932918A1, “EUTECTIC CRYSTAL FORMED BY APIXABAN AND CARBOXYLIC ACID, AND PREPARATION METHOD THEREFOR” (Zhejiang Tianyu Pharmaceutical Co., Ltd., priority 2019, dated 2021)

Assay: Dissolution rate test of Apixaban/carboxylic acid co-crystal (paddle method, Chinese Pharmacopoeia guidelines; equilibrium solubility in dissolution medium)
Assay type: physicochemical
Details: relative to Apixaban; dissolution medium 0.1mol/L hydrochloric acid, 37±0.5°C, paddle method 100rpm, 900ml, 500 mg sample powder
Experimental: Test Example 1: Dissolution rate test of Apixaban/carboxylic acid co-crystal
According to the dissolution rate test guidelines in the current Chinese Pharmacopoeia, a dissolution rate experiment was designed to respectively investigate the dissolution rates of the five Apixaban/carboxylic acid co-crystals prepared by the present invention. The specific scheme is as follows:
Table 6 Dissolution equipment and parameters
0.1mol/L hydrochloric acid solution: 9ml of hydrochloric acid was added into 1000ml of water and stirred well.
After the dissolution conditions were reached, 500 mg of sample powder were weighed and put into a dissolution cup, rotated, and immediately counted the time, after 1, 2, 3, 4, 6, 8, 10, 12, 14, 16, 18, 20, 22 and 24 hours, sampled with a sampling needle equipped with a 10µm polymeric polyethylene filter membrane, and filtered on-line through a 0.45µm polyvinylidene fluoride (PVDF) filter membrane.

Substance | dissolution rate (times that of Apixaban) [times]
Apixaban/D-malic acid co-crystal [crystal form II] | 1.44
Apixaban/malonic acid co-crystal [crystal form I] | 1.4
